Results published in ChEMBL document CHEMBL5346962, “Discovery of Sulanemadlin (ALRN-6924), the First Cell-Permeating, Stabilized α-Helical Peptide in Clinical Development” (J Med Chem, 2023).
Calls of active or inactive are those of the source. The calls are words filed in the database; no cut-off is given here.

Key:
[1] = Solubility of the compound in aqueous solution at pH 7.5 incubated for 1 hr by spectrophotometric analysis; assay type: physicochemical
[2] = Induction of cell cycle arrest in human CD34+ cells assessed as accumulation at S phase at 1 uM incubated for 24 hrs by flow cytometry (reference value: 27.5 +/- 5.8%); assay type: toxicity, cell-based; conditions: cd34-positive (myeloid/lymphoid) cell
[3] = Induction of cell cycle arrest in human CD34+ cells assessed as accumulation at S phase at 10 uM incubated for 24 hrs by flow cytometry (reference value: 27.5 +/- 5.8%); assay type: toxicity, cell-based; conditions: cd34-positive (myeloid/lymphoid) cell
[4] = tested on: CD34-positive (myeloid/lymphoid) cell; test: Protection against chemotherapy-induced cell cycle arrest in human CD34+ cells assessed as DNA damage by measuring gamma-H2AX level at 1 uM preincubated for 24 hrs followed by topotecan addition measured after 24 hrs; assay type: functional, cell-based; conditions: time 48.0 hrs
Fibroblast [5] = test: Protection against chemotherapy-induced apoptosis in human fibroblast assessed as decrease in caspase-3/7 level preincubated for 16 hrs followed by SN-38 addition measured after 32 hrs; assay type: functional, cell-based; conditions: dose 4.6-10 µM, time 48.0 hrs
Fibroblast [6] = test: Protection against chemotherapy-induced apoptosis in human fibroblast assessed as decrease in caspase-3/7 level preincubated for 16 hrs followed by vinblastine addition measured after 32 hrs; assay type: functional, cell-based; conditions: dose 4.6-10 µM, time 48.0 hrs
Fibroblast [7] = test: Protection against chemotherapy-induced apoptosis in human fibroblast assessed as decrease in caspase-3/7 level preincubated for 16 hrs followed by actinomycin D addition measured after 32 hrs; assay type: functional, cell-based; conditions: dose 4.6-10 µM, time 48.0 hrs
BT-474 = test: […] chemotherapy-induced apoptosis in human BT-474 cells assessed as decrease in caspase-3/7 level at 4.6 to 10 uM preincubated for 16 hrs followed by docetaxel addition measured after 32 hrs; assay type: functional, cell-based; conditions: dose 4.6-10 µM, time 48.0 hrs
SJSA-1 [8] = test: Antitumor activity against human SJSA-1 cells xenografted in athymic nu/nu mouse […] assessed as tumor growth inhibition administered intravenously twice a week measured for 15 days; assay type: functional, cell-based; conditions: dose 5-20 mg/kg, route iv, time 15.0 day
SJSA-1 [9] = test: Antitumor activity against human SJSA-1 cells xenografted in athymic nu/nu mouse […] assessed as tumor growth inhibition administered intravenously thrice a week measured for 15 days; assay type: functional, cell-based; conditions: dose 13.3 mg/kg, route iv, time 15.0 day
MCF7 [10] = test: Antitumor activity against human MCF7 cells xenografted in athymic nu/nu mouse […] assessed as tumor growth inhibition administered intravenously twice a week measured for 30 days; assay type: functional, cell-based; conditions: dose 5-20 mg/kg, route iv, time 30.0 day
MCF7 [11] = test: Antitumor activity against human MCF7 cells xenografted in athymic nude BALB/c mouse assessed as upregulation of p21 protein level at 20 mg/kg, iv by immunohistochemical analysis; assay type: functional, organism-based; conditions: time <= 48.0 hrs, TDE = time-dependent effect
MCF7 [12] = test: Antitumor activity against human MCF7 cells xenografted in athymic nude BALB/c mouse assessed as decrease in BrdU incorporation at 20 mg/kg, iv by immunohistochemical analysis; assay type: functional, organism-based; conditions: time <= 48.0 hrs, TDE = time-dependent effect
Bone marrow cell [13] = test: Upregulation of p21 mRNA level in bone marrow cells of C57BL/6 mouse at 2.4 mg/kg, iv measured for 24 hrs by qRT-PCR analysis; assay type: functional, organism-based
Bone marrow cell [14] = test: Upregulation of Noxa mRNA level in bone marrow cells of C57BL/6 mouse at 10 mg/kg, iv measured for 24 hrs by qRT-PCR analysis; assay type: functional, organism-based
Mus musculus [15] = test: Upregulation of p21 expression level in gastrointestinal tract of C57BL/6 mouse at 2.4 mg/kg, iv administered every 8 hrs measured for 16 hrs by immunohistochemical analysis; assay type: functional, organism-based
Mus musculus [16] = test: Protection against topotecan-induced neutropenia in C57BL/6 mouse assessed as increase in neutrophil level at 2.4 mg/kg administered on day 0 to 4 and co-administered 30 mins prior to topotecan on day 1 to 4 followed by topotecan administration on day 5 measured on day 7 by CBC analysis relative to control; assay type: functional; conditions: time 7 day
Mus musculus [17] = test: Protection against topotecan-induced epithelium hypertrophy in gastrointestinal tract of C57BL/6 mouse at 2.4 mg/kg administered on day 0 to 4 and co-administered 30 mins prior to topotecan on day 1 to 4 followed by topotecan administration on day 5 measured on day 9 by H&E staining based analysis; assay type: functional, organism-based; conditions: time 9.0 day
NCI-H69 = test: Antitumor activity against human NCI-H69 cells xenografted in athymic nu/nu mouse assessed as reduction in tumor volume at 8 mg/kg administered on day 0 to 4 and co-administered 30 mins prior to topotecan on day 1 to 4 followed by topotecan administration on day 5 measured for 60 days; assay type: functional, organism-based; conditions: time 60.0 day
[18] = Half life in mouse at 5 mg/kg by LC-MS/MS analysis; assay type: ADME, organism-based; conditions: in vivo
[19] = Clearance in mouse at 5 mg/kg by LC-MS/MS analysis; assay type: ADME, organism-based; conditions: in vivo
[20] = Half life in rat at 5 mg/kg by LC-MS/MS analysis; assay type: ADME, organism-based; conditions: in vivo
[21] = Cmax in rat at 10 mg/kg by LC-MS/MS analysis; assay type: ADME, organism-based; set-up: dose 10 mg/kg; conditions: in vivo
[22] = Half life in rat at 10 mg/kg by LC-MS/MS analysis; assay type: ADME, organism-based; conditions: in vivo
[23] = Half life in cynomolgous monkey at 5 mg/kg by LC-MS/MS analysis; assay type: ADME, organism-based, Macaca fascicularis; conditions: cynomolgus monkey, in vivo
[24] = Clearance in cynomolgous monkey at 5 mg/kg by LC-MS/MS analysis; assay type: ADME, organism-based, Macaca fascicularis; conditions: cynomolgus monkey, in vivo
[25] = AUC (all) in cynomolgous monkey at 10 mg/kg by LC-MS/MS analysis; assay type: ADME, organism-based, Macaca fascicularis; set-up: dose 10 mg/kg; conditions: cynomolgus monkey, in vivo
[26] = Half life in cynomolgous monkey at 10 mg/kg by LC-MS/MS analysis; assay type: ADME, organism-based, Macaca fascicularis; conditions: cynomolgus monkey, in vivo
[27] = Clearance in cynomolgous monkey at 10 mg/kg by LC-MS/MS analysis; assay type: ADME, organism-based, Macaca fascicularis; conditions: cynomolgus monkey, in vivo
[28] = Plasma protein binding in mouse at 2 to 50 uM; assay type: ADME, cell-free; conditions: dose 2-50 µM, read-out: PPB (converted)
[29] = Plasma protein binding in dog at 2 to 50 uM; assay type: ADME, cell-free, Canis lupus familiaris; conditions: dose 2-50 µM, read-out: PPB (converted)
[30] = Plasma protein binding in rat at 250 uM; assay type: ADME, cell-free; conditions: read-out: PPB (converted)
[31] = Plasma protein binding in human assessed as unbound fraction upto 150 uM; assay type: ADME, cell-free
[32] = Drug excretion in bile-duct cannulated rat assessed as ALRN-8714 metabolite elimination at 10 mg/kg, iv measured for 8 hrs by LC-MS/MS analysis; assay type: ADME, organism-based; conditions: in vivo
[33] = Half life in plasma of athymic nu/nu mouse xenografted with human SJSA-1 cells at 25 mg/kg, iv measured for 24 hrs by LC-MS-MS analysis; assay type: ADME, organism-based
[34] = Drug uptake in tumor of athymic nu/nu mouse xenografted with human SJSA-1 cells assessed as AUC (0 to 24 hrs) of metabolite ALRN-8714 at 25 mg/kg, iv measured for 24 hrs by LC-MS-MS analysis; assay type: ADME, organism-based, Neoplasm; set-up: dose 25 mg/kg, time 24 hrs, route iv; conditions: in vivo
[35] = Drug uptake in plasma of athymic nu/nu mouse xenografted with human SJSA-1 cells assessed as AUC (0 to 24 hrs) of metabolite ALRN-8714 at 25 mg/kg, iv measured for 24 hrs by LC-MS-MS analysis; assay type: ADME, organism-based; set-up: time 24 hrs, dose 25 mg/kg, route iv; conditions: in vivo
[36] = Drug uptake in plasma of athymic nu/nu mouse xenografted with human SJSA-1 cells assessed as half life of metabolite ALRN-8714 at 25 mg/kg, iv measured for 24 hrs by LC-MS-MS analysis; assay type: ADME, organism-based; conditions: in vivo
[37] = Toxicity in rat assessed as NOAEL administered twice weekly for 4 weeks; conditions: in vivo

**Q.** For `CC(=O)N[C@@H](CC(C)C)C(=O)N[C@H](C(=O)N[C@@H](Cc1ccccc1)C(=O)N[C@]1(C)CCCCCC/C=C/CCC[C@@](C)(C(=O)N[C@@H](C)C(=O)N[C@@H](C)C(=O)N[C@@H](C)C(=O)N[C@@H](C)C(=O)N[C@@H](C)C(=O)N[C@H](C)C(N)=O)NC(=O)[C@H](CC(C)C)NC(=O)[C@H](CCC(N)=O)NC(=O)[C@H](C)NC(=O)[C@H](Cc2c[nH]c3ccccc23)NC(=O)[C@H](Cc2ccc(O)cc2)NC(=O)[C@H](CCC(=O)O)NC1=O)[C@@H](C)O`, which solubility at 1 h [1] is on record?
**A.** The solubility at 1 h was no more than 75 µg/mL.

**Q.** And the Activity [2]?
**A.** Its Activity is 4.23%.

**Q.** And the Activity [3]?
**A.** Its Activity is 0.22%.

**Q.** And the Activity [4]?
**A.** The Activity was “inactive”.

**Q.** And the Activity (Fibroblast [5])?
**A.** The Activity was “Dose-Dependent Effect”.

**Q.** And the Activity (Fibroblast [6])?
**A.** The Activity was “Dose-Dependent Effect”.

**Q.** What about the Activity (Fibroblast [7]) of the same compound?
**A.** The Activity was “Dose-Dependent Effect”.

**Q.** What about the Activity (BT-474) of the same compound?
**A.** The Activity was “inactive”.

**Q.** And the Activity (SJSA-1 [8])?
**A.** The Activity was “Dose-Dependent Effect”.

**Q.** What about the Activity (SJSA-1 [9]) of the same compound?
**A.** Its Activity is “Dose-Dependent Effect”.

**Q.** And the Activity (MCF7 [10])?
**A.** Its Activity is “Dose-Dependent Effect”.

**Q.** What about the Activity (MCF7 [11]) of the same compound?
**A.** The Activity was “Tde”.

**Q.** And the Activity (MCF7 [12])?
**A.** Its Activity is “Tde”.

**Q.** What about the Activity (Bone marrow cell [13]) of the same compound?
**A.** Its Activity is “Active”.

**Q.** And the Activity (Bone marrow cell [14])?
**A.** Its Activity is “Active”.

**Q.** What about the Activity (Mus musculus [15]) of the same compound?
**A.** Its Activity is “Active”.

**Q.** And the Activity (Mus musculus [16])?
**A.** The Activity was 84%.

**Q.** What about the Activity (Mus musculus [17]) of the same compound?
**A.** The Activity was “Active”.

**Q.** What about the Activity (NCI-H69) of the same compound?
**A.** Its Activity is “Active”.

**Q.** And the half-life [18]?
**A.** Its half-life is 2.2 h.

**Q.** What about the clearance [19] of the same compound?
**A.** The clearance was 0.183 mL/min/kg.

**Q.** And the half-life [20]?
**A.** Its half-life is 2 h.

**Q.** What about the Cmax [21] of the same compound?
**A.** The Cmax was 186 µg/mL.

**Q.** And the half-life [22]?
**A.** Its half-life is 3.8 h.

**Q.** And the half-life [23]?
**A.** The half-life was 4.9 h.

**Q.** What about the clearance [24] of the same compound?
**A.** The clearance was 0.0983 mL/min/kg.

**Q.** And the AUC [25]?
**A.** The AUC was 1350 µg·h/mL.

**Q.** What about the half-life [26] of the same compound?
**A.** The half-life was 5.5 h.

**Q.** What about the clearance [27] of the same compound?
**A.** The clearance was 0.127 mL/min/kg.

**Q.** And the fraction unbound at up to 50 µM [28]?
**A.** Its fraction unbound at up to 50 µM is 0.08.

**Q.** And the fraction unbound at up to 50 µM [29]?
**A.** The fraction unbound at up to 50 µM was 0.08.

**Q.** And the fraction unbound at 250 µM [30]?
**A.** Its fraction unbound at 250 µM is 0.02.

**Q.** And the fraction unbound at up to 150 µM [31]?
**A.** The fraction unbound at up to 150 µM was 0.03.

**Q.** What about the Drug excretion [32] of the same compound?
**A.** The Drug excretion was “Active”.

**Q.** What about the half-life [33] of the same compound?
**A.** Its half-life is 2.8 h.

**Q.** And the AUC [34]?
**A.** The AUC was 128 µg·h/g.

**Q.** And the AUC [35]?
**A.** Its AUC is 85 µg·h/g.

**Q.** And the t1/2 [36]?
**A.** Its t1/2 is 8.4 h.

**Q.** And the NOAEL at 672 h [37]?
**A.** Its NOAEL at 672 h is 2.5 mg/kg.
